Laboratory results published in patent US20060240026A1, “Preventing and/or remedy hematopoietic tumor” (GREEN PEPTIDE CO., LTD., priority 2003, published 2006).
“Also recorded” adds a separate entry of the source. Ends that are not written are not given here.

Tests used:
[1] = Side effects and skin test, chronic lymphocytic leukemia patient; type: in vivo, human
Procedure: Three kinds of emulsions each of which contains each of these peptides respectively and an adjuvant were prepared according to the method described in Example 1, and vaccinated to the patient by injecting subcutaneously at different sites of the patient's lateral thigh. […] The skin test was conducted by injecting intradermally the solution of 50 μg of each peptide in physiological saline and determining immediate-type or delayed-type hypersensitivity reaction at 20 minutes or 24 hours after the injection.
Therefore, SART-293 (SEQ ID NO: 5) and SART-3109 (SEQ ID NO: 8) were used for vaccination. […] In the clinical trials of peptide vaccines in epithelial cancer patients, there has been observed a correlation between the survival rate of patients and the increased humoral immune responses against the peptides used in the vaccines. From these facts, it was believed that SART-293 (SEQ ID NO: 5) and SART-3109 (SEQ ID NO: 8) were effective in this patient.
Thus, there were very few side effects observed.

[2] = system: HLA-A24+ PHA blastoid T-cell; experiment: 51Cr-release test of peptide-stimulated PBMCs against normal cells; type: cell-based, human; conditions: peptide-stimulated patient PBMCs further cultured with IL-2; effector/target 3, 10 or 30; 6 h
Procedure: (§1) Then, the cytotoxicity against hematologic malignant cell lines was examined by a standard ^51Cr-release test (Non-Patent Reference 5). Specifically, the PBMCs obtained were used as an effector to mix with ^51Cr-labelled target cells (hereinafter referred to as targets) at an effector/target rate of 3, 10 or 30, and then incubated for six hours, followed by measuring the radioactivity of ^51Cr released in the supernatants. The results obtained were indicated as % lysis which was calculated by regarding a radioactivity as 100% when the targets were completely dissolved. The following targets were used: PEER, an HLA-A24^+ hematologic malignant cell line; HPB-MLT, an HLA-A24^− hematologic malignant cell line; and an HLA-A24^+ PHA blastoid T-cell.

[3] = system: HLA-A24+ hematologic malignant cell line (PEER, REH); experiment: 51Cr-release test of peptide-stimulated PBMCs against HLA-A24+ malignant line; type: cell-based, human; conditions: peptide-stimulated patient PBMCs further cultured with IL-2; effector/target 3, 10 or 30; 6 h
Procedure: as §1

[4] = system: HLA-A24- hematologic malignant cell line (HPB-MLT); experiment: 51Cr-release test of peptide-stimulated PBMCs against HLA-A24- malignant line; type: cell-based, human; conditions: peptide-stimulated patient PBMCs further cultured with IL-2; effector/target 3, 10 or 30; 6 h
Procedure: as §1

[5] = system: PBMCs of HLA-A24+ patients with hematologic malignancies; experiment: IFN-γ production by peptide-stimulated patient PBMCs in response to peptide-pulsed C1R-A24 cells; type: cell-based, human; set-up: peptide-specific IFN-γ production: unit not given here; conditions: for peptide-specific IFN-γ production: 10 μM peptide in vitro, vs peptide-pulsed C1R-A24, HIV-peptide background subtracted
Procedure: The induction of peptide-specific cytotoxic T lymphocytes from PBMCs of a patient with hematologic malignancy was conducted as reported preveously (Non-Patent Reference 5). The following peptides were used to induce cytotoxic T lymphocytes: p56^lck protein-derived peptides (Lck208 (SEQ ID NO: 1), Lck488 (SEQ ID NO: 2) and Lck486 (SEQ ID NO: 3)); SART-1-derived peptide (SART-1690 (SEQ ID NO: 4)); SART-2-derived peptides (SART-293 (SEQ ID NO: 5), SART-2161 (SEQ ID NO: 6) and SART-2899 (SEQ ID NO: 7)); SART-3-derived peptides (SART-3109 (SEQ ID NO: 8) and SART-3315 (SEQ ID NO: 9)); and ART-1-derived peptide (ART-1170 (SEQ ID NO: 10)). All of these peptides are the epithelial cancer-related antigen-derived peptides and have the ability to induce cytotoxic T lymphocytes from PBMCs of an epithelial cancer patient in an HLA-A24 dependent manner (Non-Patent References 3-6 and 12). A human immunodeficiency virus (HIV)-derived peptide (SEQ ID NO: 11) and Epstein-Barr virus (EBV)-derived peptide (SEQ ID NO: 12) were used respectively as a negative control peptide and positive control peptide both of which have an HLA-A24-binding motif. […] PBMCs were prepared from peripheral blood that was collected from a patient with hematologic malignancy using Ficoll-Conray density-gradient centrifugation. The expression of HLA-A24 molecules on PBMCs was determined using flow cytometry by a well known method (Non-Patent Reference 5). The induction of cytotoxic T lymphocytes from PBMCs was conducted as follows. […] The culture medium consisted of 45% RPMI-1640, 45% AIM-V (Invitrogen), 10% FCS, 100 U/ml of interleukin-2 (IL-2), and 0.1 mM MEM non-essential amino acid solution (Invitrogen). […] The background IFN-γ production in response to the HIV-derived peptide (SEQ ID NO: 11) was subtracted from the values given in the data. When the mean value of the IFN-γ produced from the peptide-stimulated PBMCs in response to a corresponding peptide was higher than that produced in response to the HIV peptide (SEQ ID NO: 11), it was judged that the precursor of a peptide-specific cytotoxic T lymphocyte was present in the PBMCs and that the peptide-specific cytotoxic T lymphocytes were induced by the peptide. PBMCs of ten cases of HLA-A24^+ patients with hematologic malignancies (two cases with CLL, one case with MCL, one case with NHL, one case with B-ALL, one case with MM, one case with MDS, two cases with ATL, and one case with T-ALL) were tested for the induction of cytotoxic T lymphocytes using peptides that were derived from p56^lck protein, SART-1, SART-2, SART-3 and ART-1. The peptides used were the peptides that induced peptide-specific tumor-reactive cytotoxic T lymphocytes from PBMCs of an HLA-A24^+ epithelial cancer patient, which are currently on clinical trials for use as vaccines for epithelial cancer patients. The PBMCs were stimulated with the peptide in vitro to measure the peptide-specific IFN-γ production.

[6] = system: C1R-A24 cells pulsed with the peptides; experiment: IFN-γ production of PBMCs of vaccinated chronic lymphocytic leukemia patient; type: in vivo, human; conditions: CLL patient No. 1, with the increasing number of peptide vaccination
Excerpt: The patient (patient No. 1 in table 2) subjected to clinical trials was a HLA-A24^+ […] suffering from chronic lymphocytic leukemia with a stage A by Bernet's classification.
(§2) Two kinds of emulsions prepared using these peptides according to the methods described in Example 5 were vaccinated to the patient by injecting subcutaneously at different sites of the patient's lateral thigh.
After each vaccination, PBMCs derived from the patient were studied for the peptide-specific cytotoxic T lymphocyte induction by measuring the amount of IFN-γ production as an indicator against C1R-A24 cells pulsed with the peptides used (see Example 3).

[7] = system: C1R-A24 cells pulsed with the peptides; experiment: Cytotoxic activity of PBMCs of vaccinated chronic lymphocytic leukemia patient (51Cr-release); type: in vivo, human; conditions: CLL patient No. 1, PBMCs after vaccination, 51Cr-release test
Excerpt: as §2

Substance: VYDYNCHVDL [SART-3109]
- delayed-type hypersensitivity reaction ([1]; CLL patient No. 1, after the third vaccination): delayed-type hypersensitivity reaction was observed

Substance: EYCLKFTKL [ART-1170]
- immediate hypersensitivity reaction in skin test ([1]; CLL patient No. 1, before vaccination): caused immediate hypersensitivity reaction

Substance: TFDYLRSVL [Lck486]
- cytotoxic activity (% lysis) against HLA-A24+ PHA blastoid T-cells [2]: did not show cytotoxic activity; also recorded: did not exhibit cytotoxic activity
- cytotoxic activity (% lysis) against HLA-A24+ hematologic malignant line [3]: significant cytotoxic activity; also recorded: exhibited cytotoxic activity
- cytotoxic activity (% lysis) against HLA-A24- hematologic malignant line [4]: did not show cytotoxic activity; also recorded: did not exhibit cytotoxic activity

Substance: SART-293: SART-2-derived peptide; epithelial cancer-related antigen peptide (DYSARWNEI; Partial peptide of SART-2)
- peptide-specific IFN-γ production ([5]; PBMCs of patient #1 CLL): 0
- peptide-specific IFN-γ production ([5]; PBMCs of patient #2 CLL): 440
- peptide-specific IFN-γ production ([5]; PBMCs of patient #3 MCL): 9
- peptide-specific IFN-γ production ([5]; PBMCs of patient #4 NHL): 63
- peptide-specific IFN-γ production ([5]; PBMCs of patient #5 B-ALL): 20
- peptide-specific IFN-γ production ([5]; PBMCs of patient #6 MM): 28
- peptide-specific IFN-γ production ([5]; PBMCs of patient #7 MDS): 0
- peptide-specific IFN-γ production ([5]; PBMCs of patient #8 ATL): 0
- peptide-specific IFN-γ production ([5]; PBMCs of patient #9 ATL): 354
- peptide-specific IFN-γ production ([5]; PBMCs of patient #10 T-ALL): 192
- Responding case/total (enhancement of IFN-γ production) ([5]; ten HLA-A24+ patients with hematologic malignancies): 3/10
- IFN-γ production in response to C1R-A24 cells pulsed with the peptide [6]: enhanced production of interferon (IFN)-γ
- cytotoxic activity against peptide-pulsed C1R-A24 cells versus cells pulsed with HIV-derived peptide [7]: higher cytotoxic activity
